{"source": "a melting point compilation (Tetko et al.; mined from patent text by program, amines drawn as free bases though some values may be those of a salt)", "data": [{"units": {"melting point": "°C"}, "values": [{"smiles": "CC(=O)c1ccccc1NC(=O)CN1CCN(CCCC=C(c2ccc(F)cc2)c2ccc(F)cc2)C(C(N)=O)C1", "note": "(configuration not stated)", "melting point": 111}, {"smiles": "Cc1ccc(S(=O)(=O)n2ccc3c(CO)cccc32)cc1", "melting point": "125 to 126"}, {"smiles": "COc1cc(C2C3=C(COC3=O)N(Cc3ccc([N+](=O)[O-])cc3)c3cc4c(cc32)OCO4)cc(OC)c1O", "note": "(configuration not stated)", "melting point": 193}, {"smiles": "O=C1CNC(=S)N1c1ccc2nc(S)sc2c1", "melting point": "> 266"}, {"smiles": "CCCc1ccnc2c(=O)[nH]c(-c3ccccc3OCC)nc12", "melting point": "134 to 137"}, {"smiles": "CCOC(=O)C1=C(C)NC(CN2C(=O)c3ccccc3C2=O)=C(C(=O)OCC)C1c1ccc(F)cc1", "note": "(configuration not stated)", "melting point": "144 to 145"}, {"smiles": "CON1CCC(C#N)(N(O)C(=O)Cc2cc(C)ccc2C)CC1", "melting point": "153 to 156"}, {"smiles": "COCC#Cc1cc(C(=O)OC)c(N)cc1C(F)(F)F", "melting point": "107 to 111"}, {"smiles": "O=C(Nc1ccc(C(=O)N2Cc3ccccc3Cc3ccccc32)cn1)c1ccccc1-c1ccccc1", "melting point": "134 to 142"}, {"smiles": "CS(=O)(=O)c1ccc(C(=O)O)c(Cl)c1F", "melting point": 204}, {"smiles": "COc1ccc(COc2cncc3c2C(=O)c2c(NCCN(C)C)ccc(Cl)c2C3=O)cc1", "melting point": "127 to 128"}, {"smiles": "CNc1ccc(Cl)cc1", "melting point": "72 to 74"}, {"smiles": "C=C(CS(C)(=O)=O)C(=O)O", "melting point": "147 to 149"}, {"smiles": "CCCCCCCCCCCCC(=O)c1c[nH]c(C(=O)OC)c1", "melting point": "92 to 93"}, {"smiles": "O=C(O)C1Cc2ccccc2N1C(=O)CCSSCCC(=O)N1c2ccccc2CC1C(=O)O", "note": "(configuration not stated)", "melting point": "213 to 216"}, {"smiles": "Cc1ccc(Cn2c(=O)cc(C(C)C(=O)O)c3cc(C)ccc32)cc1", "note": "(configuration not stated)", "melting point": "188 to 190"}, {"smiles": "CC(C)(C)OC(=O)N1CCN2C(=O)N(c3cc(Cl)cc(Cl)c3)C(=O)C2C1", "note": "(configuration not stated)", "melting point": 60.2}, {"smiles": "NC(=O)c1nc(-c2cccc(O)c2)nc2c1[nH]c(=O)n2-c1ccccc1Oc1ccccc1", "melting point": "329 to 331"}, {"smiles": "CC(C)(C)COC(=O)c1cc(Cl)c(F)c(Cl)c1F", "melting point": "38 to 42"}, {"smiles": "CCNC1CN(c2cc3c(cc2F)c(=O)c(C(=O)O)cn3C2CC2)C1", "melting point": "220 to 224"}, {"smiles": "NS(=O)(=O)c1ccc(-c2cnn(Cc3cc(F)c(F)cc3F)c(=O)c2-c2ccc(F)cc2)cc1", "melting point": "236 to 238"}, {"smiles": "COc1cc(OC)cc(-c2nc3ccc(Nc4ccncc4)cc3c(=O)[nH]2)c1", "melting point": "289 to 290"}, {"smiles": "Cc1c(N)ccc2[nH]cc(CCCO)c12", "melting point": "141 to 142"}, {"smiles": "CCOC(=O)C1COc2cc(C=O)c(Cl)c(Cl)c2O1", "note": "(configuration not stated)", "melting point": "101 to 102"}, {"smiles": "CCN1c2ncccc2C(=O)Nc2c(C)cc(-n3ccnc3)nc21", "melting point": "243 to 245"}, {"smiles": "NNc1cc2c(nn1)CCCCCC2", "melting point": "145 to 148"}, {"smiles": "Clc1cnc2c(-c3ccccc3)nc(Cl)nc2c1", "melting point": "140 to 141"}, {"smiles": "Clc1ccc2[nH]c(SCc3nc4ccccc4s3)nc2c1", "melting point": "176 to 180"}, {"smiles": "CCC[C@H]1CC[C@H](c2ccc(OCC)c(C=O)c2)CC1", "melting point": 32}, {"smiles": "CC(=O)c1ccc(CBr)s1", "melting point": "58 to 59"}, {"smiles": "O=S(=O)(c1ccc(Cl)cc1)C(c1ccc(CN2CCCCC2)cn1)c1cc(F)ccc1F", "note": "(configuration not stated)", "melting point": "113 to 114"}, {"smiles": "COc1cc(N)c(Cl)cc1C(=O)NC1CCN(CC2CCCCC2)CC1C", "note": "(configuration not stated)", "melting point": "173 to 176"}, {"smiles": "O=C(NCCc1ccccn1)c1ccc2cc(C(=O)N3CC(CCl)c4ccc([N+](=O)[O-])cc43)[nH]c2c1", "note": "(configuration not stated)", "melting point": "204 to 207"}, {"smiles": "O=C1NCCc2ccc(OCCCCCl)cc2N1", "melting point": "177 to 179"}, {"smiles": "CC(C)Cc1ccc2c(c1)C(=O)N(c1ccc3c(ccn3C)c1)C2", "melting point": "193 to 194"}, {"smiles": "CON=CC(C)(C)NC(=O)c1c(I)cccc1C(=O)Nc1ccc(OC(C(F)(F)F)C(F)(F)F)nc1C", "melting point": 220}, {"smiles": "COc1ccc2oc(Cc3ccccc3)c(CC#N)c2c1", "melting point": "69 to 70"}, {"smiles": "Cc1oncc1C(=O)Nc1ccc(-n2nc(C(F)(F)F)cc2C2CC2)cc1", "melting point": "90 to 95"}, {"smiles": "CC(C)CN(CC(C)C)C(=O)c1c(N)cccc1N", "melting point": "76 to 77"}, {"smiles": "CCOC(=O)c1cn(C)c2cc(C(C)(C)C)ccc2c1=O", "melting point": "138 to 140"}, {"smiles": "O=C1CCC(N2C(=O)c3cccc(OCc4ccc(CN5CCC(c6ccc(F)cc6F)CC5)cc4)c3C2=O)C(=O)N1", "note": "(configuration not stated)", "melting point": "153 to 155"}, {"smiles": "COc1ccc(C(C)N(C)CCCOc2ccc(S(=O)(=O)c3c(C(C)C)cn4ccccc34)cc2)cc1OC", "note": "(configuration not stated)", "melting point": "82 to 83"}, {"smiles": "Cc1onc(-c2ccccc2)c1C(=O)N[C@@H]1N=C(c2ccccc2)c2ccccc2N(C)C1=O", "melting point": "123 to 126"}, {"smiles": "CCOC(=O)c1cnn(-c2cc(Cl)cc(Cl)c2)c1S(C)(=O)=O", "melting point": "179 to 181"}, {"smiles": "CC(=O)C(C#N)c1ccc(F)cc1", "note": "(configuration not stated)", "melting point": "77 to 83"}, {"smiles": "CC(Oc1ccc(S(C)(=O)=O)cc1)c1ccnc2ncnn12", "note": "(configuration not stated)", "melting point": "163 to 164"}, {"smiles": "N#Cc1cnc2ccccc2c1Nc1ccc(Cl)cc1Cl", "melting point": "260 to 262"}, {"smiles": "O=C1C(O)=C(N2CCN(c3cccc(C(F)(F)F)c3)CC2)C(=O)c2ccccc21", "melting point": "167 to 169"}, {"smiles": "CC(C)(C)c1ccc(OCC(O)CN2CCC3(CC2)CSC2=C(O3)c3cc(-c4ccccc4)ccc3C(=O)C2=O)cc1", "note": "(configuration not stated)", "melting point": "94 to 97"}, {"smiles": "COC(=O)c1ccc2c(c1)CN(c1c(F)cc3c(=O)c(C(=O)O)cn4c3c1OCC4C)C2", "note": "(configuration not stated)", "melting point": "257 to 262"}, {"smiles": "Cc1cc(C)c(N)nn1", "melting point": "123 to 126"}, {"smiles": "COC(=O)c1[nH]c2ccccc2c1Oc1ccccc1[N+](=O)[O-]", "melting point": "201 to 202"}, {"smiles": "COc1cc(OC)c2c(C)c3n(c(=O)c2c1)CCCC3", "melting point": "165 to 168"}, {"smiles": "N#Cc1cc2ccccc2n1-c1ccc(CO)cc1", "melting point": "> 270"}, {"smiles": "CC(=O)N1CCc2c1cc(C)c(S(=O)(=O)C[N+](=O)[O-])c2C", "melting point": 204}, {"smiles": "CCN1CC(NC(=O)c2ccc(OCC=C(C)CCC=C(C)C)cc2)CN1CC", "melting point": "95.5 to 97"}, {"smiles": "O=C(CC(=O)C1CC1)c1ccccn1", "melting point": "77 to 78"}, {"smiles": "C[C@@H](CN1CCc2ccc3c(c21)CCO3)NC(=O)OC(C)(C)C", "melting point": "141 to 142"}, {"smiles": "Cc1cc(CNC(=O)c2cc(-c3ccc(-c4ccccc4)cc3)nn2C)ccc1OC(C)(C)C(=O)O", "melting point": "90 to 95"}, {"smiles": "CC(CC(=O)O)=NNC(=N)N", "melting point": "139 to 140"}, {"smiles": "Oc1ccc(N2CCN(Cc3nc4ccccc4o3)CC2)cc1", "melting point": "155 to 156"}, {"smiles": "O=C(O)CC1CCC(N2CCC(CNc3ccncc3)CC2)CC1", "note": "(configuration not stated)", "melting point": 260}, {"smiles": "COC(=O)C1CSC(c2ccc(Oc3ccc(C)cc3O)cc2)N1", "note": "(configuration not stated)", "melting point": "134 to 135"}, {"smiles": "NS(=O)(=O)c1ccc(C2=C(c3ccc(F)cc3)CC3(CCC3)C2)cc1", "melting point": "118 to 119"}, {"smiles": "CC(C)c1ccc(C(=O)c2ccc(N)cc2)cc1", "melting point": 110}, {"smiles": "Clc1nc2c(c(N[C@@H]3CCC[C@H]3OCc3ccccc3)n1)SCC2", "melting point": "157 to 158"}, {"smiles": "CCCCc1nc(C(=O)O)c(Sc2ccc(OC)cc2)n1Cc1cc2c(cc1Cl)OCO2", "melting point": 82}, {"smiles": "Nc1nc(N2CCC2)c2ncn(C3CC(F)C(CO)O3)c2n1", "note": "(configuration not stated)", "melting point": "127 to 129"}, {"smiles": "Cc1nn(-c2cccnc2)cc1[N+](=O)[O-]", "melting point": "122 to 124"}, {"smiles": "COc1cc(OCc2ccccn2)c(C=O)cc1-c1cccs1", "melting point": "93 to 94"}, {"smiles": "Cc1sc(-n2cccc2C=O)c(C#N)c1C", "melting point": 154}, {"smiles": "CCOc1nc(=O)n(C(=O)Nc2cccc(Cl)c2)s1", "melting point": 141}, {"smiles": "OCC1OC(n2cnc3c(NN4CCCCC4)nc(F)nc32)C(O)C1O", "note": "(configuration not stated)", "melting point": "197 to 199"}, {"smiles": "COc1ccc(N/C(SC)=C(\\C#N)C(N)=O)cc1O", "melting point": "160 to 164"}, {"smiles": "COC(=O)c1cc(N2CCSCC2)c(C(F)(F)F)cc1[N+](=O)[O-]", "melting point": "68 to 82"}, {"smiles": "O[C@@H]1CN(Cc2ccccc2)C[C@H]1Oc1ccc(Cl)cc1", "note": "(relative stereo)", "melting point": "101 to 104"}, {"smiles": "COC(=O)c1[nH]c(C)c(C)c1O", "melting point": "170 to 172"}, {"smiles": "CCOC(=O)CNCc1cccc(-c2c(CC(=O)Nc3ccc(F)cc3C(F)(F)F)c(=O)oc3cc(Cl)c(C)cc23)c1", "melting point": "153 to 155"}, {"smiles": "CCNC(C)CCNC(CC(=O)O)C(=O)OC1CCCCC1", "note": "(configuration not stated)", "melting point": "124 to 128"}, {"smiles": "NC(=NOC1CCCCO1)Nc1c(Cl)cccc1Cl", "note": "(configuration not stated)", "melting point": "178 to 180"}, {"smiles": "Cc1cnc2c(C#N)c(C)nn2c1-c1cccnc1", "melting point": "207 to 209"}, {"smiles": "CCOC(=O)c1cc2c(C)cccc2n1CCC(=O)OC(C)(C)C", "melting point": "78 to 79"}, {"smiles": "Cc1cc(OC(=O)N(C)SSC(C)(C)C)cc(C)c1N=Cc1ccccc1O", "melting point": "121 to 124"}, {"smiles": "Cc1cc(Oc2c(Cl)cc(C(F)(F)F)cc2Cl)nn1C(=S)NCC1CCCO1", "note": "(configuration not stated)", "melting point": "69 to 71"}, {"smiles": "CN1C(=O)C(C)(C)N=C(c2ccccc2F)c2cc(N)cc(Cl)c21", "melting point": "169 to 172"}, {"smiles": "Nc1ccccc1NC(=O)c1cc2cc(OCCO)ccc2s1", "melting point": "215 to 216"}, {"smiles": "COCC1(C)CCCSc2cc(C#Cc3ccc(C(=O)O)cc3)ccc21", "note": "(configuration not stated)", "melting point": "182 to 183"}, {"smiles": "CC(C)Cn1c(=O)n(C)c(=O)c2c(CCC(=O)O)c(Cc3ccccc3C(F)(F)F)sc21", "melting point": "165 to 167"}, {"smiles": "Nc1cc(Br)cc(Br)c1O", "melting point": "175 to 176"}, {"smiles": "O=C(CP(=O)(O)O)NC1CCCCC1", "melting point": "180 to 183"}, {"smiles": "c1ccc2c(c1)OCCc1c-2n(CCCN2CCCCC2)c2ccccc12", "melting point": "65 to 66"}, {"smiles": "Cc1cc([C@@H]2CCC(=O)N2)on1", "melting point": "90 to 91"}, {"smiles": "CC(=O)OCCn1nc(C)c(-c2ccc3c(c2)NC(=O)CO3)c1-c1ccc(F)cc1", "melting point": 160}, {"smiles": "Cn1ncnc1COc1nn2c(-c3ccccc3F)nncc2c1-c1ccccn1", "melting point": "186 to 187"}, {"smiles": "COC(=CCl)C1(O)CCC2C3CCC4=CC(=O)CCC4(C)C3=CCC21C", "note": "(configuration not stated)", "melting point": "197 to 199"}, {"smiles": "O=C1CCCC(Sc2ccccc2)=C1C(=O)c1ccc(Cl)c(OCCn2cnnn2)c1Cl", "melting point": "64 to 70"}, {"smiles": "N#Cc1cccc(OCc2ccccc2)c1N", "melting point": "102 to 103"}, {"smiles": "O=C(Nc1ccncc1)Nc1ccc(-c2nc(N3CCOCC3)c3nnn(C4CCOCC4)c3n2)cc1", "melting point": 332}, {"smiles": "O=C(O)c1ccc(Br)cc1Cc1ccccc1", "melting point": 137}, {"smiles": "OCCCn1c(S)nc2ccccc21", "melting point": 110}, {"smiles": "FC(F)(F)c1ccc(Oc2ccc3c(c2)OCC(c2ccccc2)O3)nc1", "note": "(configuration not stated)", "melting point": "104 to 110"}, {"smiles": "Cc1ccc(OC(C)C)c(-c2cc(=O)c3cc(C(=O)O)ccc3o2)c1", "melting point": "209 to 210"}]}]}
